Assay results reported in patent US10793589B2, “Resorcinarene-based amphipathic compound and use thereof” (Industry-University Cooperation Foundation Hanyang …, priority 2016, dated 2020).
“Also recorded” adds a separate entry of the source. Like-named read-outs stand apart in the source and are kept apart here.

Columns and labels:
[1] = molecular target: T1, human β2 adrenergic receptor (β2AR) (Homo sapiens, UniProt P07550); experiment: β2AR stability, [3H]-dihydroalprenolol (DHA) ligand binding assay; assay type: biochemical
T1 construct: made in house
Experimental: (§1) FIGS. 10A and 10B illustrate a result of measuring the effect of RGAs on the stability of β2AR after (a) 0 hour and (b) over time. Protein-ligand binding characteristics were measured via ligand binding assay using [^3H]-dihydroalprenolol (DHA), and the measurement was carried out by sampling a protein sample at regular intervals during 2 days of storage at room temperature.
as §1, with “12A” for “10A”, “12B” for “10B”, “RMAs” for “RGAs”
An experiment was carried out to measure the structural stability of a human (32 adrenergic receptor (β2AR) and a G protein-coupled receptor (GPCR) caused by RGAs and RMAs. That is, a receptor purified with DDM was diluted with a buffer solution containing only each RGA and RMA without cholesteryl hemisuccinate (CHS) or a buffer solution containing CHS and DDM. The final concentration of the compound was CMC+0.2 wt %, and the ligand binding characteristic of the receptor was measured using [^3H]-dihydroalprenolol ([^3H]-DHA) binding.
Specifically, radioligand binding assay was carried out using the following method. β2AR was purified using 0.1% DDM according to the method described in a paper (Science, 2007, 318, 1266-1273.) written by D. M. Rosenbaum et al. and finally concentrated to about 10 mg/ml (about 200 μM). The β2AR purified with DDM was used to prepare a master binding mixture containing 10 nM [^3H]-dihydroalprenolol (DHA) supplemented with 0.5 mg/ml BSA in a 0.2% amphipathic compound (DDM, RGAs or RMAs). The receptor purified with DDM, RGAs or RMAs was incubated with 10 nM [^3H]-DHA at room temperature for 30 minutes. The mixture was loaded into a G-50 column, the flow-through was collected with 1 ml of a binding buffer (20 mM HEPES pH 7.5, 100 mM NaCl, supplemented with 0.5 mg/ml BSA and 20×CMC individual amphipathic compound, and the G-50 column was further filled with 15 ml of a scintillation fluid. Receptor-bound [^3H]-DHA was measured with a scintillation counter (Beckman). The binding capacity of [^3H]-DHA was measured and shown in a column graph. Each experiment was performed in triplicate.

[2] = molecular target: T2, Salmonella typhimurium melibiose permease (MelB) (Salmonella typhimurium, UniProt P30878); experiment: MelB extraction and solubility after 90 min incubation, SDS-PAGE and western blotting; assay type: biochemical; details: 1.5 wt %
T2 construct: made in house; host or cells: E. coli DW2 (melB and lacZY deleted), plasmid pK95AHB/WT MelBSt/CH10
Experimental: FIGS. 9A and 9B illustrate a result of measuring the amount of a MelB protein dissolved in an aqueous solution after a MelB protein was extracted at four temperatures (0, 45, 55, and 65) using RGAs or DDM at a concentration of 1.5 wt % and then incubated at the same temperatures for 90 minutes:
RGAs were selected, and an experiment was carried out to measure the structural stability of a Salmonella typhimurium melibiose permease (MelB) caused by RGAs. A MelB protein was extracted from a membrane using RGAs or DDM, and the amount and structure of the protein thus extracted was then analyzed by performing SDS-PAGE and western blotting. In this case, the concentration of the used amphipathic compound was 1.5 wt %. The protein was extracted at four temperatures (0, 45, 55, and 65° C.) and then incubated at the same temperatures for 90 minutes. Subsequently, two kinds of performance of the compound, that is, protein extraction efficiency and protein stability were evaluated at the same time by measuring the amount of a protein which remained dissolved in an aqueous solution. The amount of a protein which was extracted and stabilized by an individual amphipathic molecule was expressed as a relative value (%) with respect to the amount of the entire protein included in a membrane sample not treated with an amphipathic molecule.
Specifically, a C-terminal 10-His-tagged Salmonella typhimurium melibiose permease (MelBSt) was expressed in E. coli DW2 cells (melB and lacZY) using plasmid pK95AHB/WT MelBSt/CH10. Cells were grown and membranes were prepared according to the method described in a paper (Nat. Commun. 2014, 5, 3009) written by A. S. Ethayathulla et al. A protein assay was carried out with a Micro BCA kit (Thermo Scientific, Rockford, Ill.). RGAs and DDM were evaluated to measure the stability of MelBSt according to the protocol described in a paper (Nat. Methods 2010, 7, 1003-1008) written by P. S. Chae et al. The membrane sample (final protein concentration of 10 mg/mL) containing MelBSt was incubated in a solubilization buffer containing 1.5% (w/v) DDM or RGAs (20 mM sodium phosphate, pH 7.5, 200 mM NaCl, 10% glycerol, and 20 mM melibiose) at four temperatures (0, 45, 55, and 65° C.) for 90 minutes. An insoluble material was removed by ultracentrifugation at 355,590 g at 4° C. for 45 minutes using a Beckman Optima™ MAX ultracentrifuge equipped with a TLA-100 rotor. A dissolved portion was separated by SDS-16% PAGE, and immunoblotting was then performed using a Penta-His-HRP antibody (Qiagen, Germantown, Md.). A membrane fraction containing 20 μg of protein without treatment was used to illustrate the overall MelB, and the treated samples were loaded into each well in equal volume. MelBSt was measured using the SuperSignal West Pico Chemiluminescent substrate by ImageQuant LAS 4000 Biomolecular Imager (GE Healthcare Life Sciences).

[3] = Hydrodynamic radius and size distribution of micelles by dynamic light scattering (DLS); assay type: physicochemical; details: compound 1.0 wt %
Experimental: A method of measuring the radius of a micelle is not particularly limited and may be any method generally known in the art. For example, the radius may be measured by a dynamic light scattering (DLS) experiment.
(§2) Specifically, critical micelle concentrations (CMCs) were measured using a fluorescence dye, diphenylhexatriene (DPH), and hydrodynamic radii (Rh) of micelles formed of each compound (1.0 wt %) were measured by a dynamic light scattering (DLS) experiment. Measured results are shown in Table 1 in comparison with values of DDM as an existing amphipathic molecule (detergent).
Meanwhile, size distributions of the micelles formed by RGAs and RMAs were measured using DLS.

[4] = Critical micelle concentration by fluorescence dye diphenylhexatriene (DPH); assay type: physicochemical
Experimental: A method of measuring the CMC is not particularly limited and may be any method generally known in the art. For example, the CMC may be measured according to a fluorescence staining method using diphenylhexatriene (DPH).
as §2

[5] = molecular target: T1, human β2 adrenergic receptor (β2AR); experiment: Size exclusion chromatography (SEC) of β2AR receptor-detergent complex; details: 20×CMC detergent
Experimental: FIG. 11 illustrates a result of evaluating the size characteristic of a (32AR protein-ligand binding complex formed of RGA-C11, RGA-C13, or DDM via a size exclusion chromatography (SEC) test.
In addition, a size exclusion chromatography (SEC) test was conducted. Specifically, β2AR purified with 0.1% DDM was loaded on a M1 Flag column in the presence of 2 mM CaCl2, and the column was washed with a DDM, RGA-C11 or RGA-C13 detergent buffer (20 mM HEPES pH 7.5, 100 mM NaCl, 0.2% individual amphipathic compound). The receptor was eluted with 20×CMC DDM, RGA-C11, or RGA-C13 with 5 mM EDTA and 0.2 mg/ml free Flag peptide. The eluate was further added to a Superdex-200 10/300 GL column (GE Healthcare) at 0.5 ml/min, and UV absorbance at 280 nm was recorded. The running buffer contained 20 mM HEPES pH 7.5, 100 mM NaCl, 20×CMC individual detergent (DDM, RGA-C11 and RGA-C13).

[6] = test system: leucine transporter (LeuT); experiment: LeuT structural stability, [3H]-Leu binding by scintillation proximity assay (SPA); assay type: biochemical, Aquifex aeolicus; details: CMC+0.04 wt % versus CMC+0.2 wt %
Experimental: (§3) FIGS. 7A and 7B are a set of graphs illustrating a result of measuring the structural stability of a leucine transporter (LeuT) solubilized in RGAs or DDM evaluated at CMC+0.04 wt % (a) or CMC+0.2 wt % (b). Protein stability was determined by measuring the ability of the transporter to bind a radiolabeled ligand ([3H]-Leu) via scintillation proximity assay (SPA). The substrate binding ability of LeuT was measured at regular intervals during 10 days of incubation of the protein at room temperature in the presence of individual amphipathic compounds.
as §3, with “8A” for “7A”, “8B” for “7B”, “RMAs” for “RGAs”
An experiment was carried out to measure the structural stability of a leucine transporter (LeuT) caused by RGAs and RMAs. The concentrations of individual amphipathic compounds were (a) CMC+0.04 wt % or (b) CMC+0.2 wt %, and the substrate binding characteristic of LeuT was measured by scintillation proximity assay (SPA) using [^3H]-Leu. […]
Specifically, wild type LeuT derived from Aquifex aeolicus which is a thermophilic bacterium was purified according to the method described in the paper (Nature 1998, 392, 353-358) written by G. Deckert et al. LeuT was expressed in E. coli C41 (DE3) transformed with pET16b encoding a C-terminal 8×His-tagged transporter (an expression plasmid was provided by Dr. E. Gouaux (Vollum Institute, Portland, Oreg., USA)). […] The protein samples were stored at room temperature for 10 days and centrifuged at designated time points, and protein characteristics were determined by measuring the binding capacity of [^3H]-Leucine using SPA. […]

T1 sequence (P07550 whole entry): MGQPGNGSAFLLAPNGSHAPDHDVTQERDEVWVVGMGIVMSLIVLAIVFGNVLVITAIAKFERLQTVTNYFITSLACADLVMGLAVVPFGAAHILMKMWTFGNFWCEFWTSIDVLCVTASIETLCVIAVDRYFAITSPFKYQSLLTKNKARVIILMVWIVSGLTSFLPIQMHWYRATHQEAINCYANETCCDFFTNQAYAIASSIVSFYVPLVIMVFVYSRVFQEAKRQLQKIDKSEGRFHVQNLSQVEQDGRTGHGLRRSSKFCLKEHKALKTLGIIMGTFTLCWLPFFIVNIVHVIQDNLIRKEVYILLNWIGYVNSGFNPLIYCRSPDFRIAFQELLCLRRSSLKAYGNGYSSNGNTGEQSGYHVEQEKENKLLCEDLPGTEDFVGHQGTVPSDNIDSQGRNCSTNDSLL
T2 sequence (P30878 whole entry): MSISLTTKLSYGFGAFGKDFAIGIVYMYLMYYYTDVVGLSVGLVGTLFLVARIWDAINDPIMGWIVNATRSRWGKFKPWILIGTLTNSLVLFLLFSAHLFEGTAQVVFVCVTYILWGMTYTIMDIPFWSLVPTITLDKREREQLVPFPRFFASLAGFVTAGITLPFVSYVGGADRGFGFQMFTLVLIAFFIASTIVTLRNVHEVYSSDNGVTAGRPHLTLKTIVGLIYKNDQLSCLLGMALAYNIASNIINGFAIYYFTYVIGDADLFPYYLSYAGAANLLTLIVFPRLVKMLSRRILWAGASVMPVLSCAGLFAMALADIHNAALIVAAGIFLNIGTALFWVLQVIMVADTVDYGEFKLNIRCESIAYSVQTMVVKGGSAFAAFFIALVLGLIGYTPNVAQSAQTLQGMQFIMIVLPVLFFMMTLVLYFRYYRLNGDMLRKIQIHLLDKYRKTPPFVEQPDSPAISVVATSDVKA

SMILES | maintaining the ligand binding characteristic of the receptor compared to DDM ([1]; 0 hour, CMC+0.2 wt %, [3H]-DHA) | ability to maintain the ligand binding of the receptor over time compared to DDM ([1]; 2 days at room temperature, early stage (0 to 12 h)) | receptor stability / ligand binding maintenance relative to DDM (fold, in words) ([1]; incubation at room temperature, early stage) | MelB protein extraction efficiency and solubility ([2]; 55° C.) | Rh (nm), hydrodynamic radius of micelles [3] [nm] | CMC (wt %) ([4]; DPH fluorescence) | size of receptor-detergent complex [5] | LeuT stabilization as concentration of compound increased [6] | MelB protein extraction/solubilization efficiency ([2]; 0° C.) | MelB protein extraction efficiency and solubility ([2]; 45° C.) | MelB protein extraction ([2]; 65° C.) | CMC [4] [mM] | CMC ([4]; DPH fluorescence) [mM]
CCCCCCCCCCCC[C@H]1c2cc(c(OCCO[C@@H]3OC(CO)[C@@H](O)[C@H](O)C3O)cc2OCCO[C@@H]2OC(CO)[C@@H](O)[C@H](O)C2O)[C@H](CCCCCCCCCCCC)c2cc(c(OCCO[C@@H]3OC(CO)[C@@H](O)[C@H](O)C3O)cc2OCCO[C@@H]2OC(CO)[C@@H](O)[C@H](O)C2O)[C@@H](CCCCCCCCCCCC)c2cc(c(OCCO[C@@H]3OC(CO)[C@@H](O)[C@H](O)C3O)cc2OCCO[C@@H]2OC(CO)[C@@H](O)[C@H](O)C2O)[C@@H](CCCCCCCCCCCC)c2cc1c(OCCO[C@@H]1OC(CO)[C@@H](O)[C@H](O)C1O)cc2OCCO[C@@H]1OC(CO)[C@@H](O)[C@H](O)C1O (stereo partly drawn) [RGA-C13] | superior to DDM | superior ability to maintain the ligand binding of the receptor compared to DDM | enhanced by almost three times | maintained MelB solubility better than DDM; also recorded: higher protein extraction efficiency than DDM | 3.7 ± 0.1 | ~0.0056 | significantly smaller than that formed of DDM |  |  |  |  |  | 
CCCCCCCCCCCCO[C@@H]1O[C@H](CO)[C@@H](O[C@H]2O[C@H](CO)[C@@H](O)[C@H](O)[C@H]2O)[C@H](O)[C@H]1O [DDM, n-dodecyl-β-D-maltopyranoside, reference compound] |  |  |  |  | 3.4 ± 0.0 | 0.0087 |  | constant structural collapse of the solubilized transporter | high MelB protein extraction efficiency | high MelB protein extraction efficiency | hardly extracted | 0.17 | 0.17
